Legend:
[1] = system: peripheral blood leukocytes (PBLs) on P-selectin and ICAM-1; test: Autoperfused microflow chamber assay, chamber coated with P-selectin and ICAM-1; type: in vivo; conditions: metabolite administered to mice with laser-induced CNV; for Leucocyte rolling: FIGS. 9A-D
Method: Autoperfused microflow chamber assay. Leukocyte rolling velocity was analyzed using the autoperfused microflow chamber assay.^33,43 In brief, translucent microchambers (0.4×0.04×50 mm; VitroCom) were coated overnight at 4° C. with either recombinant murine P-selectin, or combination P-selectin and ICAM1 (R&D Systems) at a concentration of 5 μg/ml each. The microchambers were then connected at both ends to biocompatible polyester tubing (PE10, Becton Dickinson). Thereafter, both the tubing and microchamber were incubated with 0.1% bovine serum albumin (Sigma-Aldrich) for 1 h to block nonspecific leukocyte interaction with their inner surfaces. The free ends of the tubing were then connected microsurgically to the right carotid artery and left jugular vein of an anesthetized mouse. In this system, blood flows from the carotid artery into the biocompatible inlet tubing, passes through the microchamber, and reenters the animal's body via the outlet tubing and jugular vein. The rate of blood flow is regulated by adjustment of the diameter of the inlet tubing with a screw valve. Microtransducers (Harvard Apparatus) attached to the chamber by three-way connectors embedded before and after the microchamber allow the continuous measurement of blood pressure. The analog output of the microtransducers unit was digitalized with an A/D converter (ML785 PowerLab/8SP, ADInstruments) connected to a PC computer running CHART V7 software (ADInstruments). The measured values at the inlet and outlet of the microchamber were used to calculate the pressure drop (ΔP). […] Ten different fields of view were recorded for at least 30 seconds. Leukocyte rolling velocity was determined from the displacement of individual cells interacting with the chamber surface over time (Δd/Δt). The displacement of leukocytes was determined using image J software 1.46 (NIH). Flux was defined as the number of interacting leukocytes per field of view, averaged over 10 independent field of views. To account for the hemodynamic conditions within the chamber, the blood pressure before the inlet and after the outlet of the chamber was measured, from which the drop of pressure Δp and the shear stress were derived

laser-induced CNV [2] = test: Laser-induced CNV, lesion size in choroidal flat-mounts stained with isolectin B4; type: in vivo, mice; conditions: 7 days after CNV induction; for Protection from laser-induced CNV (choroidal flatmount): intraperitoneal daily, 5 or 50 μg/kg/day, vs vehicle
Method: (§1) Laser-induced model of CNV. Laser photocoagulation was performed 2 weeks after the onset of feeding with the ω-3 or ω-6 LCPUFA diets with the use of a 532-nm laser (Oculight GLx Laser System, IRIDEX) attached to a slitlamp, with a coverslip being used to applanate the cornea in order to afford a view of the posterior pole of the eye. Four lesions located at the 3, 6, 9, and 12 o'clock meridians centered on the optic nerve (size and leakage studies) or 10 lesions (protein and mRNA analysis) were induced in both eyes with the same settings: spot size of 100 μm, pulse duration of 0.1 s, and laser power of 100 mW.^25 The lesions were located two or three disc diameters from the optic nerve. Laser-induced disruption of Bruch's membrane was identified by the appearance of a bubble at the site of photocoagulation. […] One investigator executed all laser photocoagulation.
Choroid flat-mount preparation. For evaluation of the size of CNV lesions, mice were anesthetized with Avertin (Sigma) and sacrificed by cervical dislocation at 5 or 7 days after laser photocoagulation. The eyes were removed and fixed in 4% paraformaldehyde for 60 min at room temperature, the cornea and lens were removed, and the entire retina was carefully dissected from the eyecup. Radial cuts (average, eight) were made from the edge of the eyecup to the equator, and the preparation was then washed with ice-cold PBS containing 0.3% Tween 20.^41 For visualization of vessels, the eyecup was stained overnight at room temperature with Alexa Fluor 488—conjugated Griffonia (Bandeiraea) simplicifolia isolectin B4 (Invitrogen) at a dilution of 1:100. The eyecup was flat-mounted on Superfrost/Plus microscope slides (Fisher) in SlowFade Antifade reagent (Invitrogen) with the sclera facing down and the choroid facing up. Fluorescence images of choroidal flat-mounts were captured with a Zeiss AxioCam MRm camera and Zeiss AxioObserver.Z1 microscope. The CNV area was measured with the use of Image J software.

laser-induced CNV [3] = test: Laser-induced CNV, vascular leakage by fluorescein angiography; type: in vivo, mice; conditions: 7 days after CNV induction; for Vascular leakage after CNV induction: intraperitoneal daily, 5 or 50 μg/kg/day, vs vehicle
Method: as §1
Fluorescein angiography. Fluorescein angiography was performed with a camera and imaging system (TRC 50 VT camera and IMAGEnet 1.53 system,
Topcon) at 5 and 7 days after laser photocoagulation. Photographs were captured with a 20-diopter lens in contact with the fundus camera lens after intraperitoneal injection of 0.1 ml of 2% fluorescein sodium (Akorn). […] Lesions were graded according to a previously established scheme as follows: 0 (not leaky), faint hyperfluorescence or mottled fluorescence without leakage; 1 (questionable leakage), hyperfluorescent lesion without progressive increase in size or intensity; 2A (leaky), hyperfluorescence increasing in intensity but not in size; 2B (clinically significant leakage), hyperfluorescence increasing in intensity and in size.^42

PPARγ = PPARγ activity in retinal nuclear extracts (ELISA-based TransAM kit); type: in vivo; conditions: ω-3-fed mice, IP daily 1 mg/kg, 7 days after CNV induction
Method: Measurement of PPARγ activity. The retinas (n=8) of mice were pooled to reduce biological variability and were homogenized in an ice-cold hypotonic buffer (ActiveMotif) for preparation of a nuclear fraction. The nuclear extract (20 μg of protein) was assayed for PPARγ activity with the use of an ELISA-based TransAM kit (ActiveMotif).

laser-induced CNV [4] = test: Laser-induced CNV, cross-sectional lesion area by SD-OCT; type: in vivo, mice; conditions: 7 days after CNV induction; for Protection from laser-induced CNV (SD-OCT): intraperitoneal daily, 5 or 50 μg/kg/day, vs vehicle
Method: as §1
Spectral domain optical coherence tomography (SD-OCT). SD-OCT was performed with a Bioptigen system at 5 and 7 days after laser photocoagulation. Mice were anesthetized with Avertin (Sigma) and positioned on a custom cassette that allowed three-dimensional free rotation for alignment of the eye for imaging. Hydration with normal saline was used to preserve corneal clarity. The B-scan were performed with 100 horizontal, raster, and consecutive B-scan lines, each one composed of 1000 A-scans. The area size was 1.4 by 1.4 mm. The software was able to generate an en face fundus image with the reflectance information obtained from the OCT sections (volume intensity projection), so that a point-to-point correlation between OCT and fundus position was possible and accurate. For evaluation of the cross-sectional size of each lesion in OCT images, the sections passing through the center of the CNV were chosen. […] We narrowed and positioned it to the level of the retinal pigment epithelium—choroid complex, so that the area of the retinal pigment epithelium—Bruch's membrane rupture was readily identifiable in the fundus image as a hyporeflective spot.^25

CD11b = test: Flow cytometric analysis of CD11b on PBLs; type: in vivo, mice; conditions: metabolite administered, laser-induced CNV model
Method: (§2) Isolation of PBLs for flow cytometric analysis. Blood freshly collected from the mouse heart with an EDTA-treated syringe was incubated for 30 min on ice with phycoerythrin-conjugated rat monoclonal antibodies to CD11b (M1/70, BD Biosciences) or to CD18 (C71/16, BD Biosciences), or with isotype control antibodies, at a ratio of 1 μg per 1×10^6 total cells. Red blood cells were lysed with the use of Easy-Lyse (Leinco Technologies), and the remaining cells were isolated by centrifugation and resuspended in PBS on ice for immediate flow cytometric analysis. PBLs were gated according to their characteristic forward and side scatter with the use of a Cytomics FC500 instrument (Beckman Coulter), and data were analyzed with FlowJo 10.0 software […].

CD18 = test: Flow cytometric analysis of CD18 on PBLs; type: in vivo, mice; conditions: metabolite administered, laser-induced CNV model
Method: as §2

[5] = ω-3 LCPUFA diet, IP daily 1 mg/kg

Row | SMILES | Leucocyte rolling [1] | Systemic leukocyte recruitment during CNV [1] | Protection from laser-induced CNV (choroidal flatmount) (laser-induced CNV [2]) | Vascular leakage after CNV induction (laser-induced CNV [3]) | Protection from laser-induced CNV (SD-OCT) (laser-induced CNV [4]) | also measured
1 | CCCCC/C=C\C/C=C\CC1OC1C/C=C\CCCC(=O)O (stereo not shown) [8,9-EET, reference compound] | increased leucocyte rolling |  |  |  |  | 
2 | O=C(Nc1ccccc1)c1cc([N+](=O)[O-])ccc1Cl [GW9662, reference compound] |  |  |  |  |  | Effect on the protective effects of ω3-LCPUFAs on CNV size (choroidal flat-mount) (laser-induced CNV [2]; [5]): significantly reduces; Effect on the protective effects of ω3-LCPUFAs on leakage (laser-induced CNV [3]; [5]): significantly reduces; Activity of PPARγ in the retina (PPARγ): significantly reduces; Effect on the protective effects of ω3-LCPUFAs on CNV size (SD-OCT) (laser-induced CNV [4]; [5]): significantly reduces
3 | CCCCC/C=C\C[C@H]1O[C@H]1C/C=C\C/C=C\CCCC(=O)O [11,12-EET, reference compound] | increased leucocyte rolling |  |  |  |  | 
4 | CCC1OC1CC=CCC=CCC=CCC=CCC=CCCC(=O)O (stereo not shown) [19,20-EDP, 19,20-epoxydocosapentaenoic acid] | decreased rolling | reduces | significant protection | significant protection | significant protection | CD11b in peripheral blood leukocytes (CD11b): suppresses
5 | CCCCCC1OC1C/C=C\C/C=C\C/C=C\CCCC(=O)O (stereo not shown) [14,15-EET, reference compound] | increased leucocyte rolling |  |  |  |  | 
6 | CCC1OC1C/C=C\C/C=C\C/C=C\C/C=C\CCCC(=O)O (stereo not shown) [17,18-EEQ, 17,18-epoxyeicosatetraenoic acid] | decreased rolling | reduces | significant and dose-dependent protection | significantly decreased | significant and dose-dependent protection | CD18 in peripheral blood leukocytes (CD18): suppresses
